According to publication PMC11062906 (Nature, 2024):
One block for each compound: values may come before it.

Key:
BmGr9 [1] = biological target: T1, BmGr9 (Bombyx mori, UniProt B3GTD7); assay: Cell-based GCaMP calcium flux assay, wild-type BmGr9; conditions: 100 mM sweet compound, HEK293 cells with BmGr9 plus GCaMP vs GCaMP only
BmGr9 [2] = biological target: T1, BmGr9; assay: Intrinsic tryptophan fluorescence of detergent-solubilized purified BmGr9; type: binding; conditions: titration of purified BmGr9
[3] = biological target: Bombyx mori gustatory receptor Gr9 (BmGr9) (Bombyx mori) (UniProt B3GTD7); assay: native gel or EMSA; Coomassie-stained denaturing and native gels of purified BmGr9; effective molecular weight approximately 700 kDa including detergent micelle

T1 sequence (B3GTD7 entry or part of it): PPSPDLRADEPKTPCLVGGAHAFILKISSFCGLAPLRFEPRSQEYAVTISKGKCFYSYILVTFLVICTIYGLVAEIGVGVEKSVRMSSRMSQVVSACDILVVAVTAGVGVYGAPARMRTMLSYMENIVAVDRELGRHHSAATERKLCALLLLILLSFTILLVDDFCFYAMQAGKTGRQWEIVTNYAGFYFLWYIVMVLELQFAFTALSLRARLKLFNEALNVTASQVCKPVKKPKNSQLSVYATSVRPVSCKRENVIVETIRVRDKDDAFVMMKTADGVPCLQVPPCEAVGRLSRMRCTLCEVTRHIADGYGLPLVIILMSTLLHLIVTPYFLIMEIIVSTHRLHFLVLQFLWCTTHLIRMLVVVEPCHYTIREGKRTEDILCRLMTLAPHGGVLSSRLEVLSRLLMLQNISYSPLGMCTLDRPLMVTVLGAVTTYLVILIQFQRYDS

Activation of BmGr9 (change in fluorescence) by sweet compound (BmGr9 [1]): significantly different activity
Compound: OC[C@H]1O[C@H](O[C@]2(CCl)O[C@H](CCl)[C@@H](O)[C@@H]2O)[C@H](O)[C@@H](O)[C@H]1Cl [sucralose]

blue shift in the tryptophan fluorescence emission spectrum (BmGr9 [2]): did not induce a shift
Compound: OC[C@H]1O[C@@](CO)(O[C@H]2O[C@H](CO)[C@@H](O)[C@H](O)[C@H]2O)[C@@H](O)[C@@H]1O [sucrose]

stoichiometry N [3]: 4
Compound: Bombyx mori gustatory receptor Gr9 (BmGr9) (from UniProt B3GTD7 2-449)
